For test [1], the system named is Staphylococcus aureus. The test is described as follows: Antibacterial activity against Staphylococcus aureus MTCC 96 at 4 mg/ml after 24 hr by agar well diffusion method. It counts as functional. The settings on record: MTCC 96, 24 h, read-out: DIZ. (A growth-free zone around the sample is the usual read-out of agar diffusion tests.)
In another test the test system is Escherichia coli. Description: Antibacterial activity against Escherichia coli MTCC 1652 at 4 mg/ml after 24 hr by agar well diffusion method. It counts as functional, organism-based.
Test [2] deals with Pseudomonas aeruginosa. The settings on record: MTCC 741, 4 mg/ml.
Description: (§1) Antibacterial activity against Pseudomonas aeruginosa MTCC 741 at 4 mg/ml after 24 hr by agar well diffusion method
In test [3] the test system is Bacillus subtilis. Description: Antibacterial activity against Bacillus subtilis MTCC 121 after 24 hr by macro dilution tube method. The test is classed as functional. The conditions noted are these: MTCC 121, 24 h.
The test system of another test is Aspergillus flavus. The test is described as follows: Growth inhibition of Aspergillus flavus at 4 mg/ml after 7 days by poisoned food technique. The test is classed as functional. The conditions noted are these: 168 h, read-out: GI.
The subject of another test is Aspergillus niger. The test is described as follows: Growth inhibition of Aspergillus niger at 4 mg/ml after 7 days by poisoned food technique. It counts as functional. The settings on record: 168 h, read-out: GI.
Test [4] has as its system Bacillus subtilis. Description: Antibacterial activity against Bacillus subtilis MTCC 121 at 4 mg/ml after 24 hr by agar well diffusion method. The conditions noted are these: MTCC 121, 24 h, read-out: DIZ. The test is classed as functional.
The test system of test [5] is Staphylococcus aureus. The test is described as follows: Antibacterial activity against Staphylococcus aureus MTCC 96 after 24 hr by macro dilution tube method. The test is classed as functional. The settings on record: MTCC 96, 24 h.
The test system of test [6] is Pseudomonas aeruginosa. Description: microbe, parasite or virus in culture. The conditions noted are these: MTCC 741, 24 h, read-out: DIZ.
Description: as §1

≈ marks a conversion by molar mass, not a printed value. Calls of active or inactive are those of the source.

The results in this text go back to ChEMBL document CHEMBL3045264, “Synthesis and antimicrobial activity of 5-((3-aryl-1-phenyl-1H-pyrazol-4-yl)methylene)thiazolidine-2,4-diones” (2012).

The MIC is the smallest concentration in the dilution series that meets the test's criterion for growth inhibition. For the compound `O=C1NC(=O)/C(=C/c2cn(-c3ccccc3)nc2-c2ccc(Cl)cc2)S1`, the zone of inhibition at 4000 µg/mL with Staphylococcus aureus [1] worked out at 14.3 mm; in the test with Bacillus subtilis [4], 15 mm. In addition, the “diameter of the inhibition zone (DIZ)” value with Escherichia coli is “inactive”. In addition, in the test with Pseudomonas aeruginosa [2], the DIZ entry is “inactive”. Besides, the MIC against Bacillus subtilis [3] and in the test with Staphylococcus aureus [5] was 128 µg/mL (≈ 335 µM) in each case. Besides, the inhibition of growth at 4000 µg/mL in the test with Aspergillus flavus came out at 60%; with Aspergillus niger it was 65.5%.

With `O=C1NC(=O)/C(=C/c2cn(-c3ccccc3)nc2-c2ccc(F)cc2)S1`, the zone of inhibition at 4000 µg/mL in the test on Staphylococcus aureus [1] was 20.6 mm; in the test on Bacillus subtilis [4] it was 21.6 mm. Further, the “diameter of the inhibition zone (DIZ)” value in the test with Escherichia coli was “inactive”. Moreover, in the test on Pseudomonas aeruginosa [2], the DIZ entry is “inactive”. In addition, the MIC with Bacillus subtilis [3] and against Staphylococcus aureus [5] was 32 µg/mL (≈ 87.6 µM) in each case. Further, the inhibition of growth at 4000 µg/mL worked out at 78.8% in the test with Aspergillus flavus and 82.5% in the test on Aspergillus niger.

As for `O=C1NC(=O)/C(=C/c2cn(-c3ccccc3)nc2-c2ccc(Br)cc2)S1`, the zone of inhibition at 4000 µg/mL worked out at 18.6 mm with Staphylococcus aureus [1] and 21.6 mm with Bacillus subtilis [4]. In the test with Escherichia coli, the “diameter of the inhibition zone (DIZ)” value is “inactive”. The DIZ result in the test on Pseudomonas aeruginosa [2] was “inactive”. Besides, the values for the MIC with Bacillus subtilis [3] and in the test on Staphylococcus aureus [5] were 32 µg/mL (≈ 75.1 µM) and 64 µg/mL (≈ 150 µM), respectively. Also, the values for the inhibition of growth at 4000 µg/mL with Aspergillus flavus and with Aspergillus niger were 62.5% and 61.1%, respectively.

Turning to `O=C1NC(=O)/C(=C/c2cn(-c3ccccc3)nc2-c2ccc([N+](=O)[O-])cc2)S1`, the zone of inhibition at 4000 µg/mL stood at 23.6 mm with Staphylococcus aureus [1] and 21.3 mm in the test on Bacillus subtilis [4]. In the test on Escherichia coli, the “diameter of the inhibition zone (DIZ)” value is “inactive”. The DIZ entry in the test with Pseudomonas aeruginosa [2] is “inactive”. In addition, the MIC amounted to 32 µg/mL (≈ 81.6 µM) against Bacillus subtilis [3] and 16 µg/mL (≈ 40.8 µM) in the test on Staphylococcus aureus [5]. Besides, the inhibition of growth at 4000 µg/mL was determined as 63.3% in the test with Aspergillus flavus and 61.1% in the test on Aspergillus niger.

Regarding `Cc1ccc(-c2nn(-c3ccccc3)cc2/C=C2\SC(=O)NC2=O)cc1`, the zone of inhibition at 4000 µg/mL with Staphylococcus aureus [1] is 16.3 mm; in the test on Bacillus subtilis [4], 15.6 mm. In addition, in the test on Escherichia coli, the “diameter of the inhibition zone (DIZ)” value is “inactive”. In the test with Pseudomonas aeruginosa [2], the DIZ result was “inactive”. In addition, the MIC against Bacillus subtilis [3] and with Staphylococcus aureus [5] was 128 µg/mL (≈ 354 µM) in each case. Also, the inhibition of growth at 4000 µg/mL in the test on Aspergillus flavus came to 65.5%; in the test with Aspergillus niger it was 68.8%.

Turning to `O=C1NC(=O)/C(=C/c2cn(-c3ccccc3)nc2-c2ccccc2)S1`, the zone of inhibition at 4000 µg/mL worked out at 20.3 mm with Staphylococcus aureus [1] and 16 mm in the test with Bacillus subtilis [4]. The “diameter of the inhibition zone (DIZ)” value with Escherichia coli was “inactive”. Besides, the DIZ entry with Pseudomonas aeruginosa [2] is “inactive”. Moreover, the MIC with Bacillus subtilis [3] was found to be 128 µg/mL (≈ 368 µM); with Staphylococcus aureus [5], 32 µg/mL (≈ 92.1 µM). Also, the inhibition of growth at 4000 µg/mL amounted to 60% in the test with Aspergillus flavus and 62.5% in the test on Aspergillus niger.

Regarding `O=C1NC(=O)/C(=C/c2cn(-c3ccccc3)nc2-c2ccc(O)cc2)S1`, the values for the zone of inhibition at 4000 µg/mL with Staphylococcus aureus [1] and in the test on Bacillus subtilis [4] were 15 mm and 14.6 mm, respectively. In the test on Escherichia coli, the “diameter of the inhibition zone (DIZ)” value is “inactive”. Also, in the test on Pseudomonas aeruginosa [2], the DIZ entry is “inactive”. Further, the MIC in the test with Bacillus subtilis [3] and in the test with Staphylococcus aureus [5] was 128 µg/mL (≈ 352 µM) throughout. Further, the inhibition of growth at 4000 µg/mL in the test with Aspergillus flavus stood at 54.4%; in the test on Aspergillus niger it was 55.5%.

On to `OC(Cn1cncn1)(Cn1cncn1)c1ccc(F)cc1F` [FLUCONAZOLE], for which the inhibition of growth at 4000 µg/mL with Aspergillus flavus turned out to be 77.7%; with Aspergillus niger, 81.1%.

In the case of `O=C(O)c1cn(C2CC2)c2cc(N3CCNCC3)c(F)cc2c1=O` [CIPROFLOXACIN], the zone of inhibition at 4000 µg/mL is 26 mm in the test on Staphylococcus aureus [1], 22 mm in the test on Pseudomonas aeruginosa [6] and 24 mm with Bacillus subtilis [4]. For the same compound, the MIC in the test with Bacillus subtilis [3] and in the test on Staphylococcus aureus [5] was 5 µg/mL (≈ 15.1 µM) in each case.

For `COc1ccc(-c2nn(-c3ccccc3)cc2/C=C2\SC(=O)NC2=O)cc1`, the zone of inhibition at 4000 µg/mL in the test on Staphylococcus aureus [1] is 13.6 mm; in the test with Bacillus subtilis [4], 14.3 mm. The “diameter of the inhibition zone (DIZ)” value with Escherichia coli is “inactive”. Also, in the test with Pseudomonas aeruginosa [2], the DIZ result is “inactive”. The MIC against Bacillus subtilis [3] and with Staphylococcus aureus [5] was 128 µg/mL (≈ 339 µM) in each case. The inhibition of growth at 4000 µg/mL in the test with Aspergillus flavus amounted to 57.7%; in the test with Aspergillus niger it was 60%.
